Where “and” joins values, the source holds several entries; their conditions need not be identical. Equal entries are not always repeated. Marks after values point to notes of the source that are not given here.
Tests used:
[1] = tested on: heart of neck-ligated Carausius morosus; set-up: method as in Marco et al., 2018; conditions: ref Marco et al., 2018, cited from earlier work
[2] = tested on: ligated 6th instar Indian stick insects (Carausius morosus); assay: Carbohydrate-mobilization (hypertrehalosemic) in vivo assay; conditions: for % Activity relative to the effect of Carmo-HrTH-II (metabolic): 20 pmol peptide injected, carbohydrate increase relative to Carmo-HrTH-II = 100, NS = no significant increase; for Hemolymph carbohydrates, 90 min: 90 min after injection of 20 pmol peptide in 10 μl; for Hemolymph carbohydrates, 90 min / Hemolymph carbohydrates, Difference: neck-ligated 6th instar nymphs; for Hemolymph carbohydrates, Difference: 90 min minus 0 min, 20 pmol peptide in 10 μl injected; for Hemolymph carbohydrates, 0 min: before injection (0 min), 2 h after neck ligation, group later given 20 pmol peptide in 10 μl, 6th instar nymphs
Experimental: Sixth instar nymphs that were 1–2 days before molting were neck-ligated and used in the hypertrehalosemic in vivo assay as described in detail by [Gäde and Lohr (1982)]. Stock peptide solutions (5 pmol μl^–1) were diluted with distilled water to the desired concentration in 10 μl, which was injected into the stick insect nymphs.
In the first series of experiments, various doses of synthetic Carmo-HrTH-II and corpora cardiaca (CC) extract of C. morosus were used to determine the maximal hypertrehalosemic response of C. morosus. Hemolymph samples were taken from 17 to 18 days old 6th instar nymphs 2 h after they were neck-ligated and then 90 min after either CC extract or synthetic Carmo-HrTH-II was injected. Ligated nymphs injected with distilled water served as controls for handling stress. As depicted in Figures 1A,B, various doses of both Carmo-HrTH-II and CC extract increased the level of carbohydrates in the hemolymph in a dose-dependent manner. A dose of 0.04 pmol of synthetic Carmo-HrTH-II and the equivalent of 0.005 pairs of corpora cardiaca (pCC) were sufficient to give significant increases in hemolymph carbohydrates (p < 0.05). […] Doses of 0.1–0.5 pCC gave an average increase of 5.6 ± 0.6 mg carbohydrates ml^–1 hemolymph (Figure 1B); again, statistical analyses reveal no significant difference between the effect of these doses (p > 0.05).
Based on these pilot experiments, we selected a dose of 20 pmol for testing the analogs of Carmo-HrTH-II since such a dose of our lead compound, Carmo-HrTH-II had achieved maximal hypertrehalosemic activity.

[3] = tested on: heart of neck-ligated Carausius morosus; assay: Semi-exposed heart bioassay (heart beat rate); format: in vivo; conditions: for Heart rate, Post-application: after application of 20 pmol peptide in 150 μl saline, average of first four counts; for Heart rate, Post-application / Heart rate, Pre-application: neck-ligated stick insects; for Heart rate, Pre-application: in saline before application, semi-exposed heart; for Heart rate, Difference: post- minus pre-application; for Heart rate, Difference / % Activity relative to the effect of Carmo-HrTH-II (myotropic): 20 pmol peptide in 150 μl; for % Activity relative to the effect of Carmo-HrTH-II (myotropic): heart rate increase relative to Carmo-HrTH-II = 100, NS = no significant increase
Experimental: The semi-exposed heart bioassay was carried out as described ([Marco et al., 2018]) with adult stick insects between 1 and 2 months old that were ligated at the neck. Briefly, a ventral incision of the abdomen exposed the ventral cavity with the internal organs; a few drops of stick insect saline (pH 6.6; 15 mM NaCl, 18 mM KCl, 7.5 mM CaCl2, 2 mM HEPES, 50 mM MgCl2, and 184 mM glucose according to [Ejaz and Lange, 2008]) were added to the exposed part. The semi-isolated heart preparation was viewed with a dissecting microscope (12-fold magnification), and the number of observed heart beats (contractions of the heart muscle) was counted during a fixed period using a manual tally counter and a timer. Once the heart had stabilized, saline was replaced with the test solution. For this the peptide stock solution of 5 pmol μl^–1 was diluted with stick insect saline to the desired concentration and a final volume of 150 μl was used for each test.
Heart rates under normal saline served as controls. The change in heart rate after the application of the test solution was calculated as an average of the first four counts and was compared to the average heart rates counted in saline before the application of the test solution. This comparison of change in heart rates was done for all the peptides tested.

Periplaneta americana = tested on: Periplaneta americana; set-up: method as in Gäde, 1990; conditions: in vivo assay, P. americana; ref Gäde, 1990; cited from earlier work
Blaberus discoidalis = tested on: Blaberus discoidalis; set-up: method as in Hayes and Keeley, 1990; conditions: in vivo assay, cockroach B. discoidalis; ref Hayes and Keeley, 1990; cited from earlier work
Manduca sexta = tested on: Manduca sexta; set-up: method as in Fox and Reynolds, 1991; Ziegler et al., 1991; conditions: in vivo assay, ref Fox and Reynolds, 1991, Ziegler et al.; cited from earlier work
Locusta migratoria = tested on: Locusta migratoria; set-up: method as in Gäde, 1990; conditions: in vivo assay, L. migratoria; ref Gäde, 1990; cited from earlier work

Row | Compound | Effect on contraction of the heart ([1]; C. morosus heart, dose-dependent) | % Activity relative to the effect of Carmo-HrTH-II (metabolic) [2] | Hemolymph carbohydrates, 90 min [2] | Hemolymph carbohydrates, Difference [2] | Hemolymph carbohydrates, 0 min [2] | Heart rate, Post-application [3] | Heart rate, Pre-application [3] | Heart rate, Difference [3] | % Activity relative to the effect of Carmo-HrTH-II (metabolic) ([2]; listed as Ala^10 analog of Carmo-HrTH-II) | % Activity relative to the effect of Carmo-HrTH-II (myotropic) [3] | Average increase of hemolymph carbohydrates ([2]; doses of 7.5–60 pmol (plateau, no significant difference between doses), 90 min) | Dose sufficient to give significant increases in hemolymph carbohydrates ([2]; synthetic peptide injected, 17-18 days old ligated 6th instar nymphs, 90 min, p < 0.05) | Doses that increased the heart beat rate significantly and maximally ([1]; ligated stick insects, synthetic peptide) | Activity relative to the endogenous octapeptides Peram-CAH-I and -II (Periplaneta americana) | Fold less active than the endogenous Bladi-HrTH (Blaberus discoidalis) | Activity relative to the endogenous nonapeptide Manse-AKH (Manduca sexta) | Activity relative to the endogenous decapeptide Locmi-AKH-I (Locusta migratoria)
1 | NCC(O)c1ccc(O)cc1 (stereo not shown) [octopamine] | inhibits the contraction of the heart |  |  |  |  |  |  |  |  |  |  |  |  |  |  |  | 
2 | pGlu-Leu-Thr-Phe-Thr-Pro-Asn-Trp-Ala-Thr amide [Ala^9-Carmo-HrTH-II] |  | 28% | 11.0 ± 1.5 mg/mL | 1.5 ± 0.9 mg/mL | 9.5 ± 1.9 mg/mL | 38 ± 2 beats min^−1 | 39 ± 2 beats min^−1 | −1 ± 1 beats min^−1 |  |  |  |  |  |  |  |  | 
3 | pGlu-Leu-Thr-Phe-Thr-Pro-Asn-Trp-Gly-Ala amide [Ala^10-Carmo-HrTH-II] |  |  | 12.4 ± 1.6 mg/mL | 2.5 ± 1.0 mg/mL | 9.9 ± 2.3 mg/mL | 41 ± 5 beats min^−1 | 41 ± 5 beats min^−1 | 0 ± 1 beats min^−1 | about 50% |  |  |  |  |  |  |  | 
4 | pGlu-Leu-Thr-Phe-Thr-Pro-Asn-Trp-Gly-Ser amide [Phyle-CC, naturally-occurring AKH decapeptide bioanalog, reference compound] |  | 109^b % | 14.1 ± 1.7 mg/mL | 5.9 ± 1.7 mg/mL | 8.2 ± 1.9 mg/mL | 46 ± 6 beats min^−1 | 38 ± 7 beats min^−1 | 8 ± 2 beats min^−1 |  | 67^b % |  |  |  |  |  |  | 
5 | pGlu-Leu-Thr-Phe-Thr-Pro-Asn-Trp-Gly-Thr OH [Carmo-HrTH-II: free C-terminus] |  | 30% | 10.4 ± 2.2 mg/mL | 1.6 ± 1.6 mg/mL | 8.8 ± 2.1 mg/mL | 47 ± 3 beats min^−1 | 40 ± 5 beats min^−1 | 7 ± 3 beats min^−1 |  | 58% |  |  |  |  |  |  | 
6 | pGlu-Leu-Thr-Phe-Thr-Pro-Asn-Trp-Gly-Thr amide [Carmo-HrTH-II, reference compound] |  | 100% | 14.9 ± 1.9 mg/mL | 5.4 ± 1.1 mg/mL | 9.4 ± 1.5 mg/mL | 53 ± 5 beats min^−1 | 41 beats min^−1 and 41 ± 4 beats min^−1 | 12 ± 5 beats min^−1 |  | 100% | 5.2 ± 0.4 mg ml^–1 | 0.04 pmol | above 6.67 × 10^–8 M | more or less as active | more than 300 fold | as, or slightly more active than the endogenous nonapeptide Manse-AKH | only slightly less active
7 | pGlu-Leu-Thr-Phe-Thr-Pro-Ser-Trp amide [Aedae-AKH, naturally-occurring AKH octapeptide bioanalog, reference compound] |  |  | 8.8 ± 1.2 mg/mL | 0.7 ± 1.1 mg/mL | 8.1 ± 1.4 mg/mL | 43 ± 6 beats min^−1 | 42 ± 6 beats min^−1 | 1 ± 1 beats min^−1 |  | 8% |  |  |  |  |  |  | 
8 | pGlu-Val-Asn-Phe-Thr-Pro-Asn-Trp-Gly-Thr amide [Rommi-CC, naturally-occurring AKH decapeptide bioanalog, reference compound] |  | 48% | 10.6 ± 1.6 mg/mL | 2.6 ± 1.5 mg/mL | 8.0 ± 1.4 mg/mL | 57 ± 4 beats min^−1 | 39 ± 3 beats min^−1 | 18 ± 6 beats min^−1 |  | 150^b % |  |  |  |  |  |  | 
